# Values joined by “and” are separate entries in the source; they are usually repeats but may differ in a detail not shown here. Identical values can stand only once. “Also recorded” adds a separate entry of the source. Like-named read-outs stand apart in the source and are kept apart here.
# Tests used:
# L929sAhFas cells [1] = assay: mTNF-induced RIPK1-dependent necroptosis; format: cell-based, murine
# Experimental: (§1) Data represent mean values ±S.E.M., n = 6. […] Data represent mean values ±S.E.M. (g–l).
# (§2) Data were analysed using the Columbus software package (PerkinElmer).
# L929sAhFas cells [2] = assay: High-content imaging of cell growth, nuclear area and nuclear roundness (cytokinesis defects); format: cell-based, murine; details: for Cytokinesis defects (nuclear roundness, nuclear area): 10 µM, 24 h
# Experimental: as §1, §2
# L929sAhFas cells [3] = assay: Cellular screening of Tozasertib analogues for cytokinesis defects and inhibition of necroptosis; format: cell-based, murine; details: 3 µM, 0.5 h or 24 h pre-treatment
# Experimental: Next, cells were left unstimulated or stimulated with mTNF (40 ng/mL) + zVAD.fmk (10 µM) for […]. Proliferation, nuclear area and cell death were quantified by staining the cells with propidium iodide (PI) (3 µM) and Hoechst (1 µM) for image analysis with BD pathway. […] Significance was analysed using repeated measurements data analysis. […] Cells were stimulated for 7 h with mTNF and 4 h with mTNF + zVAD.fmk. Data represent mean values ±S.E.M. (n = 2). […] Dose responses were included in the screening (b–c) assay conditions.
# as §2
# hAurora kinase A = molecular target: T1, hAurora kinase A (Homo sapiens, UniProt O14965); assay: In vitro ADP-Glo kinase assay; format: biochemical; details: dose response, Fig. 3b
# T1 construct: purchased Promega V9081
# T1 sequence (O14965 1-403): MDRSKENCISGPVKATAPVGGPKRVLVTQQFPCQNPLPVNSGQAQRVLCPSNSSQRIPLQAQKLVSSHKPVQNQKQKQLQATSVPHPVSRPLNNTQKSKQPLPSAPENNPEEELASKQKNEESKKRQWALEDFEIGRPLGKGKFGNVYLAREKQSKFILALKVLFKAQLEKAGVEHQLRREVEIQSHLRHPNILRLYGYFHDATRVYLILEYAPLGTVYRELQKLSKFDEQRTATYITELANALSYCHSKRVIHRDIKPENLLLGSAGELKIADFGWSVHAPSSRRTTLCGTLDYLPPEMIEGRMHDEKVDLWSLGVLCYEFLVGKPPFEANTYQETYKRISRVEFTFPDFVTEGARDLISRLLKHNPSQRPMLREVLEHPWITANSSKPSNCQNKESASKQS
# Experimental: (§3) Compounds (concentrations as indicated) were co-incubated with recombinant hRIPK1 (100 nM) (produced in our laboratory), hAurora kinase A (25 nM) or hAurora kinase B (25 nM) (ADP-Glo^TM kinase assay + Aurora A/Aurora B kinase enzyme system, Promega, V9081 and V9181). For hRIPK1, the kinase assay buffer (2×) contains 50 mM HEPES pH 7.5, 30 mM MgCl2, 50 mM NaCl, 0.5 mg/mL BSA, 0.02% CHAPS and 1 mM DTT. For the Aurora kinases, the kinase assay buffer was used from the promega assay (V9081, V9181). Next, the in vitro ADP-Glo^TM kinase assay (Promega, V6930) was used to determine kinase activity. The assay was performed according to the manufacturer’s protocol. The primary kinase reaction was carried out for 4 h at room temperature and a 2:2:1 ratio of kinase reaction volume to ADP-Glo reagent volume to kinase detection reagent volume was used.
# hAurora kinase B = molecular target: T2, hAurora kinase B (Homo sapiens, UniProt Q96GD4); assay: In vitro ADP-Glo kinase assay; format: biochemical; details: dose response, Fig. 3c
# T2 construct: purchased Promega V9181
# Experimental: as §3
# recombinant hRIPK1 = molecular target: T3, recombinant hRIPK1 (Homo sapiens, UniProt Q13546); assay: In vitro ADP-Glo kinase assay; format: biochemical; details: dose response, Fig. 3a
# T3 construct: made in house
# T3 sequence (Q13546 1-671): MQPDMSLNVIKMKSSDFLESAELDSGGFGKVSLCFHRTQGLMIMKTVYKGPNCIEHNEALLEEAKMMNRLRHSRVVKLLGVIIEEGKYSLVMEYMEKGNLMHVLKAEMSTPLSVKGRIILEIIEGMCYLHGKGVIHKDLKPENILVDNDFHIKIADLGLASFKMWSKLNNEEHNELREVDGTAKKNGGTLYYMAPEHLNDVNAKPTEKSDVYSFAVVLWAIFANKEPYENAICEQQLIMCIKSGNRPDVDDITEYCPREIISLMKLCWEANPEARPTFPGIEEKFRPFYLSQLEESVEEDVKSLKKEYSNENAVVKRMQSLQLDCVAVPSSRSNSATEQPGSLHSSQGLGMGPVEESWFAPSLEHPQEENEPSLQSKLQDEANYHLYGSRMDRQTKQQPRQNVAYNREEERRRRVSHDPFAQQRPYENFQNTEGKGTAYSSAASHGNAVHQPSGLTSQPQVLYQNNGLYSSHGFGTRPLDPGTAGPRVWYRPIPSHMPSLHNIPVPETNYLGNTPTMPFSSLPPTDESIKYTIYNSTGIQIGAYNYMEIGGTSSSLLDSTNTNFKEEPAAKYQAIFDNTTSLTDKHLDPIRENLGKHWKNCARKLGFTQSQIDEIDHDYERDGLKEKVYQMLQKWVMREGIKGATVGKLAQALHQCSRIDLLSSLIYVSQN
# Experimental: as §3
# L929sAhFas cells [4] = assay: mTNF+zVAD.fmk-induced necroptosis (sensitising condition)
# L929sAhFas cells [5] = assay: Clonogenic assay (colony-forming capacity); format: cell-based, murine
# Experimental: […]. […] Data represent mean values ±S.E.M., n = 6. […] […]. […] Data represent mean values ±S.E.M. (g–l).
# Next, treatment was removed and 50 cells/condition were seeded. After 10 days, cells were fixed with 4% PFA for 10 min. After fixation, cells were stained with a 0.01% crystal violet solution for 1 h. Cells were washed with PBS, dried overnight and images were taken. Colonies were counted using ImageJ.
# recombinant mRIPK3 = recombinant mRIPK3 (Mus musculus, UniProt Q9QZL0); assay: In vitro ADP-Glo kinase assay; format: biochemical; details: 10 µM; mRIPK3 15 nM
# Experimental: Supplementary Figure 5. […] An in vitro ADP-Glo kinase assay using recombinant mRIPK3 (15 nM) (A) was performed. […] Data represent mean value ± S.E.M. of 3 independent experiment. One-way ANOVA with Tukey correction for multiple testing has been performed (**** p<0.0001 ).
# L929sAhFas cells [6] = assay: Cytotoxicity of the compound alone (% PI-negative cells); format: cell-based, murine; details: 10 µM or lower, 24 h
# Excerpt: Supplementary Figure 1. […] Data represent mean ± S.E.M. of 3 independent experiment. One-way Anova with Tukey correction for multiple testing has been performed.
# MEF cells = assay: RIPK1-dependent apoptosis (hTNF+Tak1i); format: cell-based, murine; details: 10 µM, pre-treated 1 h, hTNF 20 ng/mL + Tak1i 1 µM
# L929sAhFas cells [7] = assay: RIPK1-independent apoptosis by agonistic anti-Fas antibody; format: cell-based, murine; details: 10 µM, pre-treated 1 h, agonistic anti-Fas antibody 250 ng/mL
# [8] = tested on: endogenous Aurora A (Aur A) and B (Aur B); assay: Immunoblot of autophosphorylation of endogenous Aurora A and B; format: cell-based, murine; details: 10 µM, 16 h
# Experimental: Then, a clonogenic assay was performed to determine colony-forming capacity. Quantification was performed using ImageJ. […] Data represent mean values ±S.E.M., n = 6. […] Data represent mean values ±S.E.M. (g–l).
# Antibodies used were anti-phospho-Aurora A (Thr288)/Aurora B (Thr232)/Aurora C (Thr198) (D13A11) (Cell Signaling, #2914, Danvers, MA, USA), anti-tubulin-HRP (abcam, ab21058, Cambridge, UK). After treatments, cells were washed twice with PBS and lysed with 2× Laemmli buffer directly. These samples were used for SDS-PAGE and immunoblotting. Tubulin was used as loading control.
# HT29 cells = assay: hTNF+Tak1i+zVAD.fmk-induced necroptosis
# [9] = pre-treated 1 h, mTNF 20 ng/mL 5 h
# [10] = Mus musculus, read-out: Necroptosis IC50, Aurora inhibitor panel, dose-response 10-0.0022 µM, pre-treated 1 h, mTNF 20 ng/mL 5 h, nonlinear regression
# recombinant mRIPK3, sequence (Q9QZL0 whole entry): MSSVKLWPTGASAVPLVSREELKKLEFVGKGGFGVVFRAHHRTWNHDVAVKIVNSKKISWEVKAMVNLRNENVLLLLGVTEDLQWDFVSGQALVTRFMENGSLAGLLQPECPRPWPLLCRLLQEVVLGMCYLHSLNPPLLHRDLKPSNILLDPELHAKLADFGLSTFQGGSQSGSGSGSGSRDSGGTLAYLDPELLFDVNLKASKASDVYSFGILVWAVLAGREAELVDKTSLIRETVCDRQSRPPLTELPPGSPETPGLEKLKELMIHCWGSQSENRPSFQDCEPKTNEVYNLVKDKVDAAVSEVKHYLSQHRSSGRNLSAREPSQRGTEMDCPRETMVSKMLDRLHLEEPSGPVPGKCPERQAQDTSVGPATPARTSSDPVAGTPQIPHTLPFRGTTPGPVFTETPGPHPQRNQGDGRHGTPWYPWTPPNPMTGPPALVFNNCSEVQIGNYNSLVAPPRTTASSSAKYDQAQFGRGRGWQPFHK
# T2 sequence (Q96GD4 whole entry): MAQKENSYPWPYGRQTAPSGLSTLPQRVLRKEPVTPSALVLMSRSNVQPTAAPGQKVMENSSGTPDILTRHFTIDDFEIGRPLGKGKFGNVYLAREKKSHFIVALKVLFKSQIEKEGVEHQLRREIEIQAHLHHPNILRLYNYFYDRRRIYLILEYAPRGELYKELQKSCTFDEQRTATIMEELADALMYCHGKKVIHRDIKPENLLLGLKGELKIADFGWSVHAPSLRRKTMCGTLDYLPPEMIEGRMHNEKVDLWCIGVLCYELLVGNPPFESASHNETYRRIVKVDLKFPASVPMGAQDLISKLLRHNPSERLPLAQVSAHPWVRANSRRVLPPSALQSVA
structure (smiles),measurement,setting,value
Cc1csc(-c2nnc(Nc3ccc(Oc4ncccc4-c4ccnc(N)n4)cc3)c3ccccc23)c1 [AMG-900],Inhibition of TNF-induced necroptosis by Aurora kinase inhibitors (in words),L929sAhFas cells [1]; [9],cannot inhibit necroptosis; also recorded: not able to protect
CCN(CCCOc1ccc2c(Nc3cc(CC(=O)Nc4cccc(F)c4)n[nH]3)ncnc2c1)CCOP(=O)(O)O [Barasertib],Inhibition of TNF-induced necroptosis by Aurora kinase inhibitors (in words),L929sAhFas cells [1]; [9],not able to protect
CO[C@@H](C(=O)N1Cc2n[nH]c(NC(=O)c3ccc(N4CCN(C)CC4)cc3)c2C1)c1ccccc1 [Danusertib],IC50,L929sAhFas cells [1]; [10],13900 nM
same,Inhibition of TNF-induced necroptosis by Aurora kinase inhibitors (in words),L929sAhFas cells [1]; [9],not able to protect
CC(C)(C)C(=O)N1N=CC[C@H]1c1ccccc1 [GSK’963],"Cytokinesis defects (nuclear roundness, nuclear area)",L929sAhFas cells [2],did not affect cytokinesis
O=C(O)c1ccc(Nc2ncc3c(n2)-c2ccc(Cl)cc2C(c2c(F)cccc2F)=NC3)cc1 [MLN-8054],Cytokinesis and proliferation in the analogue screening (in words),L929sAhFas cells [3],cytokinesis inhibition
same,Necroptosis in the analogue screening (in words),L929sAhFas cells [3]; mTNF 40 ng/mL + zVAD.fmk 10 µM 3 h,without affecting RIPK1-dependent cell death
"CN1C(=O)NC(Cc2c[nH]c3c(Cl)cccc23)C1=O (centres unmarked) [Nec-1s, Necrostatin-1s]","Cytokinesis defects (nuclear roundness, nuclear area)",L929sAhFas cells [2],does not result in cytokinesis defects
same,IC50,"L929sAhFas cells [1]; Aurora inhibitor panel, dose-response 10-0.0022 µM, pre-treated 1 h, mTNF 20 ng/mL 5 h, nonlinear regression, read-out: Necroptosis IC50",367 nM
same,IC50,"L929sAhFas cells [1]; pre-treatment 1 h, mTNF 20 ng/mL 5 h, Probit analysis, read-out: Necroptosis L929-mTNF IC50",149 nM
same,Inhibition of hAur A kinase activity (in words),hAurora kinase A,only inhibits recombinant hRIPK1
same,Inhibition of hAur B kinase activity (in words),hAurora kinase B,only inhibits recombinant hRIPK1
same,Inhibition of hRIPK1 kinase activity (in words),recombinant hRIPK1,only inhibits recombinant hRIPK1
same,IC50,"L929sAhFas cells [4]; read-out: Necroptosis L929-mTNF+zVAD IC50, pre-treatment 1 h, necroptosis treatment 3 h, Probit analysis",240 nM
O=C(Nc1cccc(Cl)c1)Nc1ncc(CCNc2ncnc3ccsc23)s1 [SNS-314],IC50,L929sAhFas cells [1]; [10],400 nM
same,IC50,"L929sAhFas cells [1]; read-out: Necroptosis IC50, Aurora inhibitor panel, dose-response 10-0.0022 µM, pre-treated 1 h, mTNF 20 ng/mL 5 h, nonlinear regression",399 nM
Cc1cc(Nc2cc(N3CCN(C)CC3)nc(Sc3ccc(NC(=O)C4CC4)cc3)n2)[nH]n1 [Tozasertib],Concentration from which colony formation is impaired,L929sAhFas cells [5]; 24 h treatment,≥ 0.2 µM
same,IC50,"L929sAhFas cells [5]; Mus musculus, 24 h, read-out: Clonogenicity IC50",122 nM
same,Mean nuclear area at highest concentration,"L929sAhFas cells [2]; 48 h, highest concentration",250 µm^2
same,Mean nuclear roundness at highest concentration,"L929sAhFas cells [2]; 48 h, 0 = straight line, 1 = perfect circle",0.80
same,EC50,"L929sAhFas cells [2]; Mus musculus, 48 h, read-out: Nuclear area (values represent EC50), compound treatment 48 h, Probit analysis",554 nM
same,IC50,"L929sAhFas cells [2]; Mus musculus, 48 h, read-out: Nuclear roundness IC50, compound treatment 48 h, Probit analysis",1640 nM
same,EC50,"L929sAhFas cells [2]; Mus musculus, read-out: Cytokinesis EC50 (nuclear area), Aurora inhibitor panel, dose-response 10-0.0022 µM, pre-treated 1 h, mTNF 20 ng/mL 5 h, nonlinear regression",591 nM
same,Protection against TNF-induced RIPK1-dependent necroptosis over time,"L929sAhFas cells [1]; 3 µM, pre-treated 1 h, mTNF 20 ng/mL",protects
same,IC50,"L929sAhFas cells [1]; Mus musculus, L929, read-out: IC50 L929 TNF-induced necroptosis as given in the Discussion, condition not specified",700 nM
same,IC50,"L929sAhFas cells [1]; read-out: Necroptosis L929-mTNF IC50, pre-treatment 1 h, mTNF 20 ng/mL 5 h, Probit analysis",550 nM and 554 nM
same,Inhibition of recombinant mRIPK3 kinase activity,recombinant mRIPK3,does not inhibit; also recorded: not able to inhibit
same,Toxicity of the compound on itself,L929sAhFas cells [6],not cytotoxic; also recorded: not toxic
same,Inhibition of RIPK1-dependent apoptosis,MEF cells,inhibits RIPK1-dependent apoptosis
same,Inhibition of RIPK1-independent (Fas-mediated) apoptosis,L929sAhFas cells [7],no inhibition is observed
same,Autophosphorylation of endogenous Aurora A and B,[8],inhibition of autophosphorylation
same,Protective effect against necroptosis at 10 µM,"HT29 cells; 10 µM, hTNF+Tak1i+zVAD.fmk 16 h",partially lost
same,Protection against necroptosis in HT29 (in words),"HT29 cells; pre-treated 1 h, hTNF+Tak1i+zVAD.fmk 17 h",protect against necroptosis
same,Protective effect against necroptosis at 10 µM,"L929sAhFas cells [4]; 10 µM, mTNF+zVAD.fmk 3 h",partially lost
same,Protection against necroptosis in L929sAhFas (in words),"L929sAhFas cells [4]; pre-treated 1 h, stimulation 3 h, sensitised condition (mTNF+zVAD.fmk) per text",protect against necroptosis
